Experimental findings from patent US20180161295A1, “TREATMENT OF CLOSED HEAD INJURY AND HEMORRHAGIC STROKE WITH HBED” (University of Florida Research Foundation, Incorporated, priority 2014, published 2018) are described below.

Series [1] relates to non-iron-loaded beagle dogs. The series can be described thus: 28-day intravenous repeat dose toxicity study, non-iron-loaded (normal) dogs. Type of series: in vivo. On the procedure:
(§1) 28-Day Intravenous Repeat Dose Toxicity Study of NaHBED in Male and Female Dogs SRI Study.
(§2) Male and female beagle dogs were either infused biweekly with iron dextran to a level of approximately 500 mg iron/kg body weight or held without iron loading during the 2-month pretreatment phase. All dogs were held an additional 2 ½ months before beginning dose administration with N,N′-di(2-hydroxybenzypethylenediarnine-N,N′-diacetic acid, monosodium salt (NaHBED). Groups of 4 male and 4 female dogs that had been iron-loaded received NaHBED at 21.46, 64.38, or 128.76 mg/kg daily in 15-35 min intravenous (i.v.) infusions for 28 consecutive days; a non-iron-loaded group containing the same number of dogs of each sex received 21.46 mg NaHBED/kg/day i.v. during the same period. Vehicle-only control groups of iron-loaded and non-iron-loaded dogs (3 males and 3 females per group) were subjected to the same regimen concurrently. […] During the treatment period, clinical observations on the animals were made daily after dosing. Body weights were measured before the start of dosing with NaHBED, weekly during the 28-day treatment period, and at study termination when recovery animals were sacrificed; food consumption was measured weekly during the treatment period. Hematology and clinical chemistry parameters, including serum iron parameters, were assessed at Weeks-1, 2, 4, and 8. Urinalysis was performed on bladder urine samples at necropsy. Plasma samples were collected for drug level analysis at selected timepoints after dosing on the first day and 28 days later. Routine ophthalmologic examinations and cardiovascular evaluations were conducted during the week prior to dose administration and during the third and fourth (eye exams) or fourth (cardiology exams) weeks of NaHBED administration. Organ weights were measured at necropsy and organ-to-body and -brain ratios determined. Gross and microscopic examination of a complete set of tissues was performed on iron-loaded high dose (128.76 mg/kg/day) and control groups and on non-iron-loaded low dose (21.46 mg/kg/day) and control groups. Specimens from liver, heart, spleen, lung, kidney, and eye were taken from each dog at necropsy for subsequent tissue analyses of iron and zinc content.

The test system of another series is iron-loaded beagle dogs. The series can be described thus: 28-day intravenous repeat dose toxicity study, iron-loaded dogs. Type of series: in vivo. On the procedure:
as §1, §2

Series [2] can be described thus: Toxicokinetics (plasma drug level analysis) in the 28-day i.v. dog study. It is filed as in vivo, beagle dogs. Here is the method: Male and female beagle dogs were either infused biweekly with iron dextran to a level of approximately 500 mg iron/kg body weight or held without iron loading during the 2-month pretreatment phase. […] During the treatment period, clinical observations on the animals were made daily after dosing. Body weights were measured before the start of dosing with NaHBED, weekly during the 28-day treatment period, and at study termination when recovery animals were sacrificed; food consumption was measured weekly during the treatment period. Hematology and clinical chemistry parameters, including serum iron parameters, were assessed at Weeks-1, 2, 4, and 8. Urinalysis was performed on bladder urine samples at necropsy. Plasma samples were collected for drug level analysis at selected timepoints after dosing on the first day and 28 days later. Routine ophthalmologic examinations and cardiovascular evaluations were conducted during the week prior to dose administration and during the third and fourth (eye exams) or fourth (cardiology exams) weeks of NaHBED administration. Organ weights were measured at necropsy and organ-to-body and -brain ratios determined. […] Specimens from liver, heart, spleen, lung, kidney, and eye were taken from each dog at necropsy for subsequent tissue analyses of iron and zinc content.

For a further series, the system named is mTBI animals. The series can be described thus: Lower limb spasticity (velocity dependent ankle torque and triceps EMG) after weight drop closed head injury (mTBI). Type of series: in vivo, rats. Particulars: 50 mg/kg s.c. 2x per day for 2 weeks, PO Wk-1 and PO Wk-3. Here is the method:
Ankle torque, displacement and EMGs are simultaneously recorded and time-locked to onset of dorsiflexion. Velocity dependent ankle torque was tested between 49 and 612 degrees/sec dorsiflexion in awake rats.
These experiments were performed to assess the influence of treatment using NaHBED following mTBI. Fifteen mTBIs were performed as described above, using 450×1.25m weight drop closed head injury. The animals were randomly divided into two groups, control (n=5) and iron chelator (IC) NaHBED treatment (n=10). Beginning on the first day following injury, NaHBED was delivered by subcutaneous injection of 50 mg/kg, 2× per day, for a total dosage of 100 mg/kg/body weight/day. NaHBED 60 mg/ml, was dissolved in deionized, sterilized, iron-free water. The IC was administered every day for 2 weeks. The control animals received equal volume subcutaneous injections of saline.
Spasticity: The influence of treatment was tested by analysis of lower limb spasticity (velocity dependent ankle torque and triceps EMG), in mTBI treated and non-treated mTBI animals. A normal ICT group (Normal HBED) was also included as a treatment control.

[3] abbreviates: non-iron-loaded dogs, 21.46 mg/kg/day i.v., at necropsy.
Where [4] appears, read: non-iron-loaded dogs, 21.46 mg/kg/day i.v., statistically significant for males on Day 15.
Where [5] appears, read: repeated daily i.v. doses, iron-loaded beagle dogs, 28 days.

SMILES strings stand for the structures. “Also recorded” adds a separate entry of the source.

In the case of `O=C([O-])CN(CCN(CC(=O)O)Cc1ccccc1O)Cc1ccccc1O.[Na+]` [NaHBED], the “mobilization and excretion of iron and zinc” value in series [1] (non-iron-loaded dogs, 21.46 mg/kg/day dose level, monosodium salt, 21.46 mg/kg/day) was “induced mobilization and enhanced excretion; also recorded: clear indication”. Further, in series [1] (non-iron-loaded dogs, 21.46 mg/kg/day i.v., 28 days), the other effects result was “No other effects”. Also, in series [1] (setting [3]), the “iron content of kidneys” value is “dramatic decrease” and the “zinc content of kidneys” value is on record as “dramatic decrease”. In series [1] (non-iron-loaded dogs, 21.46 mg/kg/day i.v., occasionally), the urine coloration result is recorded as “slightly red coloration”. In series [1] (setting [4]), the iron-to-transferrin ratio result was “apparent elevation” and the serum iron result was “apparent elevation”. The “iron and zinc in kidneys, females” value in series [1] (non-iron-loaded female dogs, 21.46 mg/kg/day i.v., at necropsy) was “virtual absence of either ion”. For the same compound, the “histopathologic findings clearly associated with administration” value in the series with iron-loaded beagle dogs (daily i.v. for 28 days) is on record as “no histopathologic findings”. Moreover, the “effects on body weight and food consumption; ophthalmologic, cardiovascular, hematology, clinical chemistry and urinalysis parameters; organ weights or weight ratios” value in the series with iron-loaded beagle dogs (iron-loaded dogs, daily i.v. for 28 days) was “no distinguishable effects”. For the same compound, the observable adverse effects result with iron-loaded beagle dogs (iron-loaded dogs, high dose level (128.76 mg/kg/day i.v., 28 days)) is recorded as “emesis and/or diarrhea”. For the same compound, in the series on iron-loaded beagle dogs (iron-loaded male groups, at necropsy), the “mean kidney iron content” value was “statistically lower”. For the same compound, the kidney zinc content result in the series on iron-loaded beagle dogs (iron-loaded, high dose level group, at necropsy) was “statistically lower”. The urine coloration entry in the series with iron-loaded beagle dogs (majority of dogs at all dose levels, most of the treatment period) was “Reddish urine”. In the series with iron-loaded beagle dogs (setting [5]), the “maximum tolerated dose (MTD) level” value is reported as greater than 128.76 mg/kg/day and the “no observable adverse effect level (NOAEL)” value came out at 64.38 mg/kg/day. In series [2] (daily i.v., Day 28 vs Day 1), the “total body clearance, Day 28 relative to Day 1” value is recorded as “correspondingly elevated” and the “volume of distribution, Day 28 relative to Day 1” value is recorded as “correspondingly elevated”. In addition, the “toxicokinetic parameters, iron-loaded versus non-iron-loaded dogs” value in series [2] (same dose level) was “similar”. Moreover, in the series on mTBI animals, the “amplitudes of time locked EMGs” value is reported as “significantly lower” and the “amplitudes of velocity dependent ankle torques” value is on record as “significantly lower”.
